How the values were obtained:
Format in all cases: in vivo, human
[1] = placebo-controlled double-blind study: plasma acid soluble thiol and thiol/disulfide redox status; details: healthy male subjects, NAC three doses of 600 mg per day, vs placebo-treated group
Method: (§1) The placebo-controlled double-blind study was performed with healthy, normotonic male non-smoking subjects. The subjects had not taken alcohol, caffeine, or any medication at least during the last 24 hours prior to the study. Also, they had not been engaged in extensive physical exercise for at least 12 hours prior to the study. Twenty-eight subjects were recruited into the study and randomized for the treatment with NAC or placebo. NAC (200 mg capsules) or placebo were administered in three doses of 600 mg per day at 8.00 a.m., 4.00 p.m. and 11.00 p.m. The plasma concentrations of acid soluble thiol (mainly cysteine) and cystine (cysteine disulfide) were determined in the cubital venous blood by a photometric assay and by the amino acid analyzer, respectively. […] The EPO concentration in serum was determined by the help of a commercial EPO ELISA kit.

oxygen sensors = test: placebo-controlled double-blind study: isocapnic hypoxic ventilatory response
Method: The placebo-controlled double-blind study was performed with healthy, normotonic male non-smoking subjects. The subjects had not taken alcohol, caffeine, or any medication at least during the last 24 hours prior to the study. Also, they had not been engaged in extensive physical exercise for at least 12 hours prior to the study. Twenty-eight subjects were recruited into the study and randomized for the treatment with NAC or placebo. NAC (200 mg capsules) or placebo were administered in three doses of 600 mg per day at 8.00 a.m., 4.00 p.m. and 11.00 p.m. In addition, the hypoxic ventilatory response of the subjects was quantitatively determined. The ventilatory activity was determined under two different experimental conditions using an equipment of oxychon-beta. The first measurement, the so-called “isocapnic hypoxic ventilatory response” (isocapnic HVR), was tested under normoxic conditions, i.e., under conditions of normal oxygen concentration and constant carbon dioxide concentration. The second measurement, the so-called poikilocapnic hypoxic ventilatory response (poikilocapnic HVR), was determined under normobaric conditions in a hypoxia chamber with a constant FiO2 of 12%. The term “poikilocapnic” describes study conditions characterized by a variable carbon dioxide concentration in the expiratory air, whereas the term “isocapnic” refers to conditions with a constant carbon dioxide concentration.

erythropoietin (EPO) = test: placebo-controlled double-blind study: EPO concentration by EPO ELISA kit
Method: as §1

[2] = summary statement of the placebo-controlled double-blind study

## CC(=O)N[C@@H](CS)C(=O)O [NAC, N-acetylcysteine]
[1]; P<0.01 (FIG. 1)
  plasma thiol concentration (T), relative change: significantly increased
[1]; P<0.05 (FIG. 1)
  plasma thiol/disulfide redox status (thiol^2 disulfide^−1), relative change: increased
Oxygen sensors; before vs 4 days after start of treatment, P value <0.01 (FIG. 2)
  increase in ventilatory activity (H, isocapnic hypoxic ventilatory response) between time 1 and time 2: significantly different from that of the placebo-treated control group
Oxygen sensors; healthy male subjects, NAC three doses of 600 mg per day, vs placebo-treated group (FIG. 1)
  isocapnic hypoxic ventilatory response (H), relative change: significantly increased
Oxygen sensors; [2]
  ventilatory activity: increase
Erythropoietin (EPO); 2 hrs after the 6-hr-exposure to the hypoxia chamber, vs placebo-treated group, P<0.05 (FIG. 1)
  plasma EPO concentration after exposure to the hypoxia chamber (Eh), relative change: increased
Erythropoietin (EPO); before exposure to the hypoxia chamber, vs placebo-treated group, P<0.05 (FIG. 1)
  plasma EPO concentration (E), relative change: increased
Erythropoietin (EPO); before vs 5 days after start of treatment, P value <0.05 (FIG. 2)
  increase in plasma EPO concentration (E) between time 1 and time 2: significantly different from that of the placebo-treated control group
Erythropoietin (EPO); [2]
  plasma erythropietin concentration: increase
